Measured values from patent publication US9809623B2, “α4β7 peptide monomer and dimer antagonists” (Protagonist Therapeutics, Inc., priority 2014, dated 2017).
Numbered stars: 1 amine (or outer) side, 2 acyl side, 3 side chain; on linkers, the order of the positions; unused ones are H or OH. Bridge positions count the residues as written; N and C are the ends. Square brackets hold non-standard residues; d marks the D form. Peptide text beside a SMILES is read from it. I, II: the chains in the order shown. Phe(4-tBu) = CC(C)(C)c1ccc(C[C@H](N)C(=O)O)cc1; Diglycolyl = O=C(COCC(=O)[*:2])[*:1]; NMeR = CN[C@@H](CCCNC(=N)N)C(=O)O; β3hE = N[C@@H](CCC(=O)O)CC(=O)O; Pen = CC(C)(S)[C@H](N)C(=O)O

Tests used:
Intestinal Wash Assay = assay type: in vitro ADME; parameters: dose or concentration left out as unconfirmed; settings: rat, rat intestinal wash fluid (small intestine); Table 4-C, t1/2
Description: Intestinal wash assay solution was prepared from rats fasted for at least 6 hours prior. The animals were euthanized and a midline incision was made from the point of the jaw to the pubis. The abdomen and chest were opened by making 2 incisions through the anterior chest wall on either side. Hemostats were used to clamp off both ends of the animal's stomach—where the esophagus meets the stomach and where the stomach meets the duodenum. A hemostat was also used to clamp 2-3 cm down the intestine from where the stomach meets the duodenum.
Intestinal wash assay solution was prepared by separating 20 cm of the small intestine from the body. Once separated 20 cm, the end was clamped with a hemostat and the section cut from the body, leaving the hemostats in place on the removed section. 1 mL of chilled saline was drawn up with a 1 mL syringe. One end of the intestine was held up and the clamp removed. Approximately 2-2.5 cm of the gavage needle was inserted into the intestine, and the saline was slowly injected. The fluid was massaged down the length of the intestine using gloved fingers. The gavage needle was removed and the clamp was replaced on the end of the intestine. The intestine was sat straight and a q-tip was run firmly up and down the length of the outside of the intestine approximately 3-6 times to mix the enzymes with the saline. One end of the intestine was held up and some of the fluid was carefully moved at the top down. The clamp was removed and that end of the intestine was set into a small weigh boat on ice. The other end of the intestine was carefully picked up and held vertically. Gloved fingers were gently run down it to squeeze the fluid into the container. The previous steps saline injection and fluid procurement steps were repeated twice using only 0.5 mL of chilled saline. The sample was pipetted from the weigh boat into a centrifuge tube and placed on ice. All intestinal wash samples were spun down in a cold centrifuge at 12,000×g for 10 minutes. The supernatant from the top of each centrifuged sample was pipetted into cryotubes, and kept on ice until use.
Intestinal wash assays were performed using intestinal wash assay solution prepared as described above. A sufficient amount of rat intestinal wash was thawed. For each sample, 200 uL of rat intestinal wash fluid was pipetted into 1.5 mL Eppendorf tubes (number of tubes for experiment=number of test peptides×N). The tubes were pre-incubated for about 10 minutes in a water bath at 37° C.
Peptide working solutions ([…]) were prepared by combining 2 μl of 10 mM DMSO stock with 128 μl 100 mM Tris pH 7.5.
Peptide quench solvent (50% ACN-50% MeOH-5% Formic Acid)+IS (5 ug/ml; 1 ul of 10 mg/mL IS per 2 mL quench solvent) was prepare and a quench plate prepared and placed on ice. 200 ul of quench solution was added to each well of the quench plate for T=0, 10, 20, 30, 60 and 180 min collection.
For each test sample and a positive control, 30 ul of peptide working solution was added to a tube of intestinal wash fluid. The tube was gently vortexed and 30 ul was immediately removed and quenched in T=0 well of quench plate (pipetted directly into the quench solution). This well was covered tightly to prevent evaporation. 30 ul aliquots were removed at T=10 min, T=20 min, T=30 min, T=60 min, and T=180 min, and quenched. When all time points were collected, the quench plate was centrifuged at 10,000 rpm for 10 minutes. 150 uL of each supernatant was transferred to a polypropylene 96-well collection plate. 300 ul Mobile Phase A was added to each collection, and LC/MS/MS analysis was performed to determine the amount or concentration of peptide remaining in each test sample and positive control.

[1] = Cysteine/Cystine Redox Stability Assay; assay type: physicochemical; settings: Table 4-C; ORP where half of the oxidized peptide remains
Description: Peptides were diluted to 90 μM by adding 4.545 μl of a 10 mM peptide DMSO stock to 495.45 μl of 100 mM Tris-Cl, pH 7.5. Aliquots of […] were transferred to 8 wells down a column of a 96 well plate. 20 μl of 2.5 mM Cystine in 100 mM Tris-Cl, pH 7.5 was added to each well. Cysteine stock solutions in 100 mM Tris-Cl, pH 7.5 were prepared fresh at the following concentrations: 400 mM, 200 mM, 80 mM, 44 mM, 22 mM, 11 mM, 5.5 mM and blank. At time 0, 25 μl of each cysteine stock solution was added to the 55 μl of cystine/peptide solution, and the mixture was incubated at room temperature for 40 min. The samples were quenched by adding 20 μl of 5M acetic acid and analyzed by reverse phase HPLC. The fraction of oxidized peptide was calculated and plotted against the calculated oxidation reduction potential (ORP) as defined by the Nernst equation. The ORP where half of the oxidized peptide remains is shown below.

[2] = test system: BALB/c mice, chronic DSS colitis; assay: 15 day chronic DSS colitis mouse model; assay type: in vivo; settings: 10 mg/kg PO BID plus 0.2 mg/ml in drinking water
Description: To further evaluate the efficacy of peptides of the present invention in treating colitis, a chronic DSS colitis mouse model was used to examine the effects of orally administered Peptide X or another peptide, Peptide XX, as compared to vehicle control or the antibodies, MECA 367 and DATK32. Peptide XX is a dimer having the following structure, where DIG links the two peptide monomers by their C-termini:
In this 15 day chronic DSS colitis study, BALB/c mice were treated continuously with 2.5% DSS. Peptide X dosing was 55 mg/kg/day, 17 mg/kg/day or 6 mg/kg/day in drinking water. Peptide XX dosing was 10 mg/kg PO BID plus 0.2 mg/ml in drinking water. The anti-α4β7 Ab DATK32 was dosed 25 mg/kg IP every 3 days, and the anti-MAdCAM Ab MECA 367 was dosed 8 mg/kg IP daily. After takedown, distal colon sections were fixed for histopathology and processed for β7+ cell IH staining using the anti-β7 antibody M293.

SMILES | half-life (Intestinal Wash Assay) | Cys/CySS (mV) [1] | colon macroscopic and histopathology scores [2] | infiltration of B7+ cells into the lamina propria of the distal colon [2]
CC(=O)N[C@H]1CSSC(C)(C)[C@@H](C(=O)N[C@@H](Cc2c[nH]c3ccccc23)C(=O)N[C@H](CCCCNC(=O)COCC(=O)NCCCC[C@@H](NC(=O)[C@H](Cc2c[nH]c3ccccc23)NC(=O)[C@H]2NC(=O)[C@H](CC(C)C)NC(=O)[C@H]([C@@H](C)O)NC(=O)[C@H](CC(=O)O)NC(=O)[C@H](CO)NC(=O)[C@H](CCCNC(=N)N)N(C)C(=O)[C@@H](NC(C)=O)CSSC2(C)C)C(N)=O)C(N)=O)NC(=O)[C@H](CC(C)C)NC(=O)[C@H]([C@@H](C)O)NC(=O)[C@H](CC(=O)O)NC(=O)[C@H](CO)NC(=O)[C@H](CCCNC(=N)N)N(C)C1=O [compound 204, (Ac-C-N-Me-R-S-D-T-L-Pen-W-k-NH2)2-DIG] (I: Ac-C[NMeR]SDTL[Pen]W[dK]-NH2 / II: Ac-C[NMeR]SDTL[Pen]W[dK]-NH2; disulfide I:1-I:7, II:1-II:7 (inferred); linker I:9-II:9 via Diglycolyl (inferred)) | > 3 h | −204 mV |  | 
CC(=O)N[C@@H]1C(=O)N[C@@H](CCCNC(=N)N)C(=O)N[C@@H](CO)C(=O)N[C@@H](CC(=O)O)C(=O)N[C@@H]([C@@H](C)O)C(=O)N[C@@H](CC(C)C)C(=O)N[C@H](C(=O)N[C@H](CCCCNC(=O)COCC(=O)NCCCC[C@@H](NC(=O)[C@@H]2CSSC(C)(C)[C@H](NC(C)=O)C(=O)N[C@@H](CCCNC(=N)N)C(=O)N[C@@H](CO)C(=O)N[C@@H](CC(=O)O)C(=O)N[C@@H]([C@@H](C)O)C(=O)N[C@@H](CC(C)C)C(=O)N2)C(N)=O)C(N)=O)CSSC1(C)C [compound 207, (Ac-Pen-R-S-D-T-L-C-k-NH2)2-DIG] (I: Ac-[Pen]RSDTLC[dK]-NH2 / II: Ac-[Pen]RSDTLC[dK]-NH2; disulfide I:1-I:7, II:1-II:7 (inferred); linker I:8-II:8 via Diglycolyl (inferred)) | < 0.167 h | −173 mV |  | 
CC(=O)N[C@@H]1C(=O)N(C)[C@@H](CCCNC(=N)N)C(=O)N[C@@H](CO)C(=O)N[C@@H](CC(=O)O)C(=O)N[C@@H]([C@@H](C)O)C(=O)N[C@@H](CC(C)C)C(=O)N[C@H](C(=O)N[C@@H](Cc2c[nH]c3ccccc23)C(=O)N[C@H](CCCCNC(=O)COCC(=O)NCCCC[C@@H](NC(=O)[C@H](Cc2c[nH]c3ccccc23)NC(=O)[C@H]2NC(=O)[C@H](CC(C)C)NC(=O)[C@H]([C@@H](C)O)NC(=O)[C@H](CC(=O)O)NC(=O)[C@H](CO)NC(=O)[C@H](CCCNC(=N)N)N(C)C(=O)[C@@H](NC(C)=O)C(C)(C)SSC2(C)C)C(N)=O)C(N)=O)C(C)(C)SSC1(C)C [compound 209, (Ac-Pen-N-Me-R-S-D-T-L-Pen-W-k-NH2)2-DIG] (I: Ac-[Pen][NMeR]SDTL[Pen]W[dK]-NH2 / II: Ac-[Pen][NMeR]SDTL[Pen]W[dK]-NH2; disulfide I:1-I:7, II:1-II:7 (inferred); linker I:9-II:9 via Diglycolyl (inferred)) | > 3 h | <−300 mV |  | 
CC(=O)N[C@@H]1C(=O)N(C)[C@@H](CCCNC(=N)N)C(=O)N[C@@H](CO)C(=O)N[C@@H](CC(=O)O)C(=O)N[C@@H]([C@@H](C)O)C(=O)N[C@@H](CC(C)C)C(=O)N[C@H](C(=O)N[C@@H](Cc2c[nH]c3ccccc23)C(=O)N[C@@H](CCC(=O)O)CC(=O)N[C@H](CCCCNC(=O)COCC(=O)NCCCC[C@@H](NC(=O)C[C@H](CCC(=O)O)NC(=O)[C@H](Cc2c[nH]c3ccccc23)NC(=O)[C@H]2NC(=O)[C@H](CC(C)C)NC(=O)[C@H]([C@@H](C)O)NC(=O)[C@H](CC(=O)O)NC(=O)[C@H](CO)NC(=O)[C@H](CCCNC(=N)N)N(C)C(=O)[C@@H](NC(C)=O)C(C)(C)SSC2(C)C)C(N)=O)C(N)=O)C(C)(C)SSC1(C)C [compound 213, [Ac-Pen-(N-Me-Arg)-Ser-Asp-Thr-Leu-Pen-Trp-(β-homoGlu)-(D-Lys)-NH2]2-DIG] (I: Ac-[Pen][NMeR]SDTL[Pen]W[β3hE][dK]-NH2 / II: Ac-[Pen][NMeR]SDTL[Pen]W[β3hE][dK]-NH2; disulfide I:1-I:7, II:1-II:7; linker I:10-II:10 via Diglycolyl) |  |  | reduced colon macroscopic and histopathology scores comparable to the antibodies | reduced infiltration
CC(=O)N[C@@H]1C(=O)N(C)[C@@H](CCCNC(=N)N)C(=O)N[C@@H](CO)C(=O)N[C@@H](CC(=O)O)C(=O)N[C@@H]([C@@H](C)O)C(=O)N[C@@H](CC(C)C)C(=O)N[C@H](C(=O)N[C@@H](Cc2c[nH]c3ccccc23)C(=O)N[C@@H](CCC(=O)O)C(=O)N[C@H](CCCCNC(=O)COCC(=O)NCCCC[C@@H](NC(=O)[C@H](CCC(=O)O)NC(=O)[C@H](Cc2c[nH]c3ccccc23)NC(=O)[C@H]2NC(=O)[C@H](CC(C)C)NC(=O)[C@H]([C@@H](C)O)NC(=O)[C@H](CC(=O)O)NC(=O)[C@H](CO)NC(=O)[C@H](CCCNC(=N)N)N(C)C(=O)[C@@H](NC(C)=O)C(C)(C)SSC2(C)C)C(N)=O)C(N)=O)C(C)(C)SSC1(C)C [compound 217, (Ac-Pen-N-Me-R-S-D-T-L-Pen-W-E-k-NH2)2-DIG] (I: Ac-[Pen][NMeR]SDTL[Pen]WE[dK]-NH2 / II: Ac-[Pen][NMeR]SDTL[Pen]WE[dK]-NH2; disulfide I:1-I:7, II:1-II:7 (inferred); linker I:10-II:10 via Diglycolyl (inferred)) | > 3 h | <−300 mV |  | 
CC(=O)N[C@@H]1C(=O)N(C)[C@@H](CCCNC(=N)N)C(=O)N[C@@H](CO)C(=O)N[C@@H](CC(=O)O)C(=O)N[C@@H]([C@@H](C)O)C(=O)N[C@@H](CC(C)C)C(=O)N[C@H](C(=O)N[C@@H](Cc2ccc(C(C)(C)C)cc2)C(=O)N[C@@H](CCC(=O)O)CC(=O)N[C@H](CCCCNC(=O)COCC(=O)NCCCC[C@@H](NC(=O)C[C@H](CCC(=O)O)NC(=O)[C@H](Cc2ccc(C(C)(C)C)cc2)NC(=O)[C@H]2NC(=O)[C@H](CC(C)C)NC(=O)[C@H]([C@@H](C)O)NC(=O)[C@H](CC(=O)O)NC(=O)[C@H](CO)NC(=O)[C@H](CCCNC(=N)N)N(C)C(=O)[C@@H](NC(C)=O)C(C)(C)SSC2(C)C)C(N)=O)C(N)=O)C(C)(C)SSC1(C)C [compound 218, [Ac-Pen-(N-Me-Arg)-Ser-Asp-Thr-Leu-Pen-Phe(4-tBu)-(β-homoGlu)-(D-Lys)-NH2]2-DIG] (I: Ac-[Pen][NMeR]SDTL[Pen][Phe(4-tBu)][β3hE][dK]-NH2 / II: Ac-[Pen][NMeR]SDTL[Pen][Phe(4-tBu)][β3hE][dK]-NH2; disulfide I:1-I:7, II:1-II:7; linker I:10-II:10 via Diglycolyl) | > 6 h | <−300 mV |  | 
